# Assay results published in patent US20110245091A1, “REACTION PROGRESS ASSAY FOR SCREENING BIOLOGICAL ACTIVITY OF ENZYMES” (priority 2010, published 2011).
# Biological target: T1, HIV-I reverse transcriptase (Human immunodeficiency virus type 1 group M subtype B, UniProt P04585)
# T1 construct: HIV-I RNA-dependent DNA polymerase (reverse transcriptase); purchased Worthington LS05006
# Experiment: Reaction progress luminescence assay of cDNA synthesis by HIV-I reverse transcriptase (luciferase detection of dATP)
# Assay type: biochemical
# Procedure: The reaction was set by adding: 16 µL of RNAse-free water; 2 µL of 10× reaction buffer (400 mM Tris-HCl, 60 mM MgCl2, 100 mM Dithiothreitol, 20 mM spermidine, pH 7.9 @ 25° C.); 2 µL of template, polyuridylic acid at 1 µg/µL (Midland Certified Reagent Company, Cat. No. P-3004); 2 µL of primer poly(A)18 at 0.5 µg/µL (Polydeoxyadenylate, 18 base long purchased from Integrated DNA technologies); 20 µM of dATP; 3 U of HIV-I (Worthington, Cat. No. LS05006); 3 µL of ATP detection solution prepared by diluting luciferase (EC 1.13.12.7) at 3 µg/mL in 0.1M Tris-acetate pH 7.7, 2 mM EDTA, 10 mM magnesium acetate, 0.1% BSA, 1 mM dithiothreitol, 0.4 mg/mL PVP, and 0.4 mM D-luciferin. A 5 µL of reaction solution has been added to a well of 384-well plate and the luminescence intensity vs. time was recorded on Orion II microplate luminometer at 25° C. (Berthold detection Systems (Pforzheim, Germany)). A first derivative, ∂l(t)l∂t, for the luminescence intensity has been calculated. The derivative was calculated by selecting a group of three or more consecutive measurements of the luminescence intensity and calculating by a least square method the “instant” slope of the luminescent intensity which said slope represents the first derivative of the luminescence at the time when the respective measurements were made. […]
compound,measurement,setting,value
C[C@H](Cn1cnc2c(N)ncnc21)OCP(=O)(O)O [MT-4S],mechanism of inhibition (crossing of trend lines),MT-4S at 1.2 nM and 3.7 nM,non-competitive
same,Ki,"inhibitor at 0, 1.2 and 3.7 nM, 20 μM dATP, 25° C., read-out: inhibition constant Ki",0.9 ± 0.15 nM
